ChEMBL document CHEMBL1949564, “Inhibitory activity of eudesmane sesquiterpenes from Alpinia oxyphylla on production of nitric oxide” (Bioorg Med Chem Lett, 2012)
Converted amounts (≈) assume the structure as drawn. Residues, ends and D or L forms follow the SMILES beside them. *: point of attachment. Cbz = O=C(OCc1ccccc1)*

Experiments:
RAW264.7 [1] = test: Antiinflammatory activity in mouse RAW264.7 cells assessed as inhibition of LPS-induced NO production after 5 mins by Greiss method; assay type: functional, cell-based; settings: RAW264.7, 5 min
RAW264.7 [2] = test: Antiinflammatory activity in mouse RAW264.7 cells assessed as inhibition of IFNgamma-induced NO production after 5 mins by Greiss method; assay type: functional, cell-based; settings: RAW264.7, 5 min

| IC50 (RAW264.7 [1]) | IC50 (RAW264.7 [2]) | Compound |
| --- | --- | --- |
| 9.85 µg/mL (≈ 39.3 µM) | 9.85 µg/mL (≈ 39.3 µM) | C=C(C)[C@]1(O)CC[C@@]2(C)CCC(=O)[C@@]3(C)O[C@@]23C1 [OXYPHYLLANENE D] |
| 11.4 µg/mL (≈ 48.6 µM) | 11.4 µg/mL (≈ 48.6 µM) | C=C(C)[C@]1(O)CC[C@@]2(C)CCC(=O)C(C)=C2C1 |
| 11.6 µg/mL (≈ 49.6 µM) | 11.6 µg/mL (≈ 49.6 µM) | C=C(C)[C@]1(O)CC[C@]2(C)CC(=O)C=C(C)[C@H]2C1 |
| 12.5 µg/mL (≈ 53.4 µM) | 12.5 µg/mL (≈ 53.4 µM) | C=C(C)[C@@H]1CC[C@@]2(C)CCC(=O)C(C)=C2[C@@H]1O |
| 11.4 µg/mL (≈ 48.5 µM) | 11.4 µg/mL (≈ 48.5 µM) | C=C(C)[C@@]1(O)CC[C@]2(C)CC(=O)C=C(C)[C@H]2C1 [TEUCRENONE] |
| 13.3 µg/mL (≈ 52.6 µM) | 13.3 µg/mL (≈ 52.6 µM) | CC1=C2C[C@H](C(C)(O)CO)CC[C@@]2(C)CCC1=O (stereo partly drawn) |
| 12.1 µg/mL (≈ 51.8 µM) | 12.1 µg/mL (≈ 51.8 µM) | C=C(C)[C@@H]1CC[C@]2(C)C(=C(C)C(=O)C[C@H]2O)C1 [LIGUCYPERONOL] |
| 11 µg/mL (≈ 47 µM) | 11 µg/mL (≈ 47 µM) | CC(=O)[C@]12CC[C@@]3(C)CCC(=O)C(C)=C3[C@H]1O2 [OXYPHYLLANENE C] |

Further lines, the compound ahead of its results:

| Compound | IC50 (RAW264.7 [1]) | IC50 (RAW264.7 [2]) |
| --- | --- | --- |
| CC(C)C[C@@H](C=O)NC(=O)[C@H](CC(C)C)NC(=O)[C@H](CC(C)C)NC(=O)OCc1ccccc1 [MG-132] (Cbz-Leu-Leu-Leu-aldehyde) | 0.17 µg/mL (≈ 0.357 µM) | 0.17 µg/mL (≈ 0.357 µM) |
| CC1=C2C=C(C(C)(O)CO)CC[C@]2(C)CCC1=O (stereo partly drawn) [OXYPHYLLANENE F] | 13.9 µg/mL (≈ 55.7 µM) | 13.9 µg/mL (≈ 55.7 µM) |
| C=C1[C@@H](O)CC[C@]2(C)CC[C@](O)(C(=C)C)C[C@@H]12 (relative stereo) | 13.5 µg/mL (≈ 57.2 µM) | 13.5 µg/mL (≈ 57.2 µM) |
| C[C@@]12CCC[C@](C)(O)C1=CC(=O)CC2 [TEUHETENONE A] | 12.9 µg/mL (≈ 66.6 µM) | 12.9 µg/mL (≈ 66.6 µM) |
| C[C@@]12CCC(=O)C=C1[C@@](C)(O)[C@H](O)CC2 [OXYPHYLLENONE A] | 12 µg/mL (≈ 57 µM) | 12 µg/mL (≈ 57 µM) |
| C=C(C)[C@@H]1CC[C@@]2(C)[C@H](O)CC[C@](C)(O)[C@@H]2C1 (racemic) | 13.5 µg/mL (≈ 56.8 µM) | 13.5 µg/mL (≈ 56.8 µM) |
